Experimental data reported in US20140073611A1, “METHODS FOR DRUG SCREEN USING ZEBRAFISH MODEL AND THE COMPOUNDS SCREENED THEREFROM” (National Taiwan University, priority 2012, published 2014).
Where a name gives a salt, the structure may show the parent alone.

Legend:
[1] = system: lumican knockdown zebrafish (zLum-MO); experiment: Drug screen in lumican (zLum-MO) knockdown zebrafish: big eye ratio / scleral coat enlargement; type: in vivo; conditions: for outcome of the screen of about 30 drugs: lumican knockdown zebrafish model; for % of scleral enlargement in experimental group: zLum-MO knockdown model, vs. 30% of scleral enlargement in control group
Method: The term “big eye” denotes that an eye with a value of the axial length of the retinal pigmented epithelium layer divided by the axial length of the scleral coat is less than 0.7.
According to the disclosure, the knockdown zebrafish are exposed to a test compound at the optic cup formation stage thereof. Generally, at around 24 hours after fertilization, the optic cup of zebrafish is formed. The knockdown zebrafish can be exposed to the test compound at the optic cup formation stage. After contacting the knockdown zebrafish with the test compound, the test compound, if it is a potential candidate, may start to activate the expression of lumican and collagen fibrillogenesis, thereby decreasing the enlargement of eyeball and treating and/or preventing myopia and/or keratoconus disease. Retina lenses are established around 48 hours after fertilization, and the sclera and cornea are established around 72 hours after fertilization. At sclera and cornea establishment stage, the zebrafish are collected.
(§1) Big eye in a zebrafish is an indicator of myopia. As used herein, a “big eye” refers to an eye with an enlarged axial length of eyeball and denotes the value of the axial length of the retinal pigmented epithelium layer divided by the axial length of the scleral coat less than 0.7. The axial length of a retinal pigmented epithelium layer and the axial length of a scleral coat can be measured by any method known in the art—for example, dissecting microscopy.
The test compound can be identified as a candidate compound affecting the expression of lumican and/or collagen fibrillogenesis and/or regulation of eyeball size, and/or treating and/or preventing myopia and/or keratoconus disease if the ratio of the number of big eyes decreases relative to the total number of eyes in zebrafish or that of big eyes in control zebrafish that is not contacted with the test compound. […] Preferably, the ratio is less than 15%. More preferably, the ratio decreases to about 0% to about 30%, about 0% to about 25%, about 0% to about 20%, about 0% to about 15%, about 0% to about 10%, about 1% to about 30%, about 1% to about 25%, about 1% to about 20% or about 1% to about 15%.
Zebrafish are raised and maintained according to previously established protocols (Soules K A, Link B A. Morphogenesis of the anterior segment in the zebrafish eye. BMC Dev Biol 2005; 5:12). All experiments are performed on Tuebingen AB zebrafish raised at 28° C. on a 14-h light and 10-h dark cycle and maintained using standard methods. Embryos are staged according to morphological criteria (somite number) (Kimmel C B, Ballard W W, Kimmel S R, et al. Stages of embryonic development of the zebrafish. Dev Dyn 1995; 203(3):253-310) and timed in hours after fertilization. Embryos are generated by natural pair-wise mating, as described in the zebrafish handbook (Westerfield M. The Zebrafish Book; A Guide for the Laboratory Use of Zebrafish (Brachydanio rerio). University of Oregon Press, Eugene, 2nd edition 300P., 1993). For each mating, 4±5 pairs are set up and, on an average; 100±150 embryos per pair are generated. The zebrafish embryo is optically transparent, making it possible to detect functional and morphological changes in internal organs without having to kill or dissect the organism. Chorions are removed manually with Dumont Watchmaker's Forceps No. 5.
Morpholinos are chemically modified antisense oligonucleotides that can be designed to hybridize to the translation-initiation or splicing acceptor/donor sites of specific mRNAs (Nasevicius A, Ekker S C. Effective targeted gene ‘knockdown’ in zebrafish. Nat Genet 2000; 26(2):216-20). A morpholino-antisense oligonucleotide (Gene Tools, Philomath, Oreg.) are designed and synthesized to target the 5′-untranslated and/or flanking regions, including the translation start codon of the respective genes. The MO sequence is designed as follows: zLum-MO, 5′-[…]-3′.

[2] = system: zLum-MO-injected fish; conditions: in vivo zebrafish larvae assays; prior reference Yeh et al., J Biol Chem 2010; cited from earlier work
[3] = system: zLum-MO-injected fish; experiment: Eye morphometry and phenotype of zLum-MO-injected fish after muscarinic antagonist treatment (FIGS. 7-8); type: in vivo, zebrafish; conditions: for diameter of the scleral coat / excessive axial elongation: zLum-MO-injected fish at 7 dpf, FIG. 7(C); for diameter of the scleral coat / excessive axial elongation / ratio of RPE/scleral coat (%): 0.5% atropine, 0.25% pirenzepine; for diameter of the scleral coat / excessive axial elongation / ratio of RPE/scleral coat (%) / ocular enlargement (phenotype): 0.01% methoctramine; for ratio of RPE/scleral coat (%): zLum-MO-injected fish, FIG. 7(D); for ocular enlargement (phenotype): zLum-MO-injected larvae at 7 dpf, 0.5% atropine for 2 days, 0.25% pirenzepine for 2 days, FIG. 8
Source text: FIGS. 7(A)-(D) depict a zebrafish drug screen assay. FIGS. 7(A) and (B) illustrate and define the outer margin of the retinal pigmented epithelium layer (RPE(red color)) and the diameter of the scleral coat (D(green color)) in zebrafish.
as §1
Morpholinos are chemically modified antisense oligonucleotides that can be designed to hybridize to the translation-initiation or splicing acceptor/donor sites of specific mRNAs (Nasevicius A, Ekker S C. Effective targeted gene ‘knockdown’ in zebrafish. Nat Genet 2000; 26(2):216-20). A morpholino-antisense oligonucleotide (Gene Tools, Philomath, Oreg.) are designed and synthesized to target the 5′-untranslated and/or flanking regions, including the translation start codon of the respective genes. The MO sequence is designed as follows: zLum-MO, 5′-[…]-3′. This oligonucleotide complemented the sequence from −8 through +17 with respect to the translation initiation codon. A random sequence MO (RS-MO) serves as a control for zLum-MO: 5′-[…]-3′. This RS-MO is obtained from Gene Tools as a standard control oligonucleotide with no target specificity (Yeh L K, Liu C Y, Kao W W, et al. Knockdown of zebrafish lumican gene (zlum) causes scleral thinning and increased size of scleral coats. J Biol Chem 2010; 285(36):28141-55).
(§2) Morpholino is resuspended in sterile water to a concentration of 1 mmol/L and diluted to […] with sterile water. The morpholinos are injected at the single-cell stage in a volume of 0.0023 nL. Here, we identified the effects of morpholinos on protein levels are assayed with western blotting from injected embryos with GAPDH as a control.

[4] = system: lumican, collagen 1a1, TGF-beta, MMP2 and TIMP2; experiment: Expression patterns in atropine-treated zLum knockdown morphant (FIG. 9); type: in vivo, zebrafish
Method: FIG. 9 depicts atropine rescues zLum knockdown morphant.
as §2
We used several antibodies to evaluate the effects of lumican knockdown and all can be obtained from different commercial supplies. Rabbit anti-TGFβ2, Rabbit anti-MMP-2, Goat anti-TIMP-2, Goat anti-Col1a1 (L-19) and Goat anti-PDI are obtained from Santa Cruz. Mouse anti-GAPDH is obtained from Abnova.

C[C@H](CS)C(=O)N1CCC[C@H]1C(=O)O [Captopril]
outcome of the screen of about 30 drugs [1]: effective candidate compounds

CC(=O)Oc1ccccc1C(=O)O [Aspirin]
outcome of the screen of about 30 drugs [1]: effective candidate compounds
% of scleral enlargement in experimental group [1]: 9.6%

CNC(=O)[C@@H](NC(=O)[C@H](CC(C)C)[C@H](O)C(=O)NO)C(C)(C)C [Marimastat]
outcome of the screen of about 30 drugs [1]: effective candidate compounds
% of scleral enlargement in experimental group [1]: 2%

CN1CCN(CC(=O)N2c3ccccc3C(=O)Nc3cccnc32)CC1 [Pirenzepine dihydrochloride]
ocular enlargement caused by morpholinos [2]: effectively subdued the ocular enlargement
diameter of the scleral coat [3]: Significant decreases
excessive axial elongation [3]: significant decreases
ratio of RPE/scleral coat (%) [3]: attenuate the decreasing ratio
ocular enlargement (phenotype) [3]: decreases in ocular enlargement

CN(C)c1ccc(O)c2c1C[C@H]1C[C@H]3[C@H](N(C)C)C(O)=C(C(N)=O)C(=O)[C@@]3(O)C(O)=C1C2=O [Minocycline hydrochloride]
% of scleral enlargement in experimental group [1]: 4.7%

CC(=O)N[C@@H](CS)C(=O)O [n-acetylcysteine]
outcome of the screen of about 30 drugs [1]: effective candidate compounds
% of scleral enlargement in experimental group [1]: 11.7%

CN1[C@@H]2CC[C@H]1C[C@@H](OC(=O)C(CO)c1ccccc1)C2 (some centres unmarked) [Atropine]
expression of MMP-2 and TIMP ([4]; lumican knockdown fish, atropine treatment): returned to the normal level
expressions of lumican, collagen 1a1, TGF-beta, MMP2 and TIMP2 in lumican morphant ([4]; zLum knockdown morphant treated with atropine, FIG. 9): reverse the expressions
ocular enlargement caused by morpholinos [2]: effectively subdued the ocular enlargement
scleral coat enlargement ([3]; lumican knockdown fish, administration of atropine, FIGS. 7 to 9): could be inhibited
diameter of the scleral coat [3]: Significant decreases
excessive axial elongation [3]: significant decreases
ratio of RPE/scleral coat (%) [3]: attenuate the decreasing ratio
ocular enlargement (phenotype) [3]: significant decreases in ocular enlargement

CC(C)c1cccc(C(C)C)c1O [Propofol, 2,6-diisopropylphenol]
outcome of the screen of about 30 drugs [1]: effective candidate compounds
% of scleral enlargement in experimental group [1]: 12%

CC(C)[N+]1(C)[C@@H]2CC[C@H]1CC(OC(=O)C(CO)c1ccccc1)C2.[Br-] (some centres unmarked) [Ipratropium bromide]
Big eye rate(%) ([1]; lumican knockdown zebrafish, big eye = RPE/scleral coat axial length < 0.7, Conc.: Atropine 0.50%, Tropicamide 1 mM, Ipratropium 50 mM, Oxybutynin 2 uM, Scopolamine 100 uM, Pirenzepine 0.25%, SB 431542 25 uM, Tamoxifen 20 uM, Doxycycline 100 ppm, Genistein 25 uM, Marimastat 50 uM, Taurine 0.2M, Minocycline 50 uM, n-acetylcysteine 10 uM, Aspirin 50 mg/L, Propofol 0.5 mM, SP600125 2.5 uM, Zileuton 1): 26.0%

COc1ccccc1CNCCCCCCNCCCCCCCCNCCCCCCNCc1ccccc1OC [methoctramine]
diameter of the scleral coat [3]: no obvious changes
excessive axial elongation [3]: no obvious changes
ratio of RPE/scleral coat (%) [3]: no obvious changes
ocular enlargement (phenotype) [3]: no obvious changes in the phenotypes

C[C@H]1c2cccc(O)c2C(=O)C2=C(O)[C@]3(O)C(=O)C(C(N)=O)=C(O)[C@@H](N(C)C)[C@@H]3[C@@H](O)[C@@H]21 [Doxycycline hyclate]
% of scleral enlargement in experimental group [1]: 6.8%
